Data set [1] is described as follows: Log P by HPLC on reversed phase columns (EEC directive 79/831 Annex V.A8). The class given is physicochemical. How it is done: If more than one Log P value is available within the same method, all the values are given and separated by “+”. Calibration was done with straight-chain alkan2-ones (with 3 to 16 carbon atoms) with known Log P values (measurement of Log P values using retention times with linear interpolation between successive alkanones). Lambda-max-values were determined using UV-spectra from 200 nm to 400 nm and the peak values of the chromatographic signals.

The subject of data set [2] is Xanthomonas campestris pv. Campestris. As to the kind of experiment: Xanthomonas campestris pv. Campestris in vitro cell test (bacteria growth in liquid culture). The following applies: 20 ppm of tested compound, 24 h of incubation. The class given is cell-based. How it is done:
Culture medium: LB broth medium (Luria Broth Miller) Sigma
Inoculum: bacteria suspension
Compounds to be tested were solubilized in DMSO and the solution used to prepare the required range of concentrations. The final concentration of DMSO used in the assay was ≤1%.
Inoculum was prepared from a pre-culture of bacteria grown in liquid medium and diluted to the desired optical density (OD).
Compounds were evaluated for their ability to inhibit bacteria growth in liquid culture assay. The compounds were added in the desired concentrations to culture medium containing the bacteria suspension. After 24 h of incubation, the efficacy of compounds was determined by spectrometric measurement of bacteria growth. Inhibition was determined by comparing the absorbance values in wells containing the compounds with the absorbance in control wells without compounds.

Setting [3] is: method [a]: LC-UV, acidic range, 0.1% formic acid in water and acetonitrile as eluent.
Where [4] appears, read: reversed phase HPLC columns, method [a]: LC-UV, acidic range, 0.1% formic acid in water and acetonitrile as eluent, read-out: LogP.
Setting [5] is: reversed phase HPLC columns, value given in preparation example, method letter not indicated, read-out: Log P.

SMILES strings stand for the structures. Read-outs that look alike come from different tables or passages of the source.

As usually defined, the Log P is a log measure of how a compound divides between an organic and an aqueous phase. A lower Log P goes with a more hydrophilic compound.

Turning to `O=C1OC(c2sc(Cl)c(Cl)c2Cl)=NC12CC2` [III.03], the LogP in data set [1] (setting [3]) is 4.01^[a]. Further, the “direct activity (inhibition of bacteria growth)” value in data set [2] is “no direct activity”.

`Cl.Nc1c(C(=O)O)sc(Cl)c1Cl` [XXXa.02, 3-amino-4,5-dichlorothiophene-2-carboxylic acid hydrochloride (1:1)]: the LogP in data set [1] (setting [3]) is 2.05^[a]. In the case of `Cc1c(C2=NC3(CC3)C(=O)O2)sc(Cl)c1Cl` [III.04], the LogP in data set [1] (setting [3]) is 4.30^[a]. In data set [2], the “direct activity (inhibition of bacteria growth)” value is recorded as “no direct activity”.

On to `O=C1OC(c2sc(Br)c(Br)c2I)=NC12CC2` [III.05], for which the LogP in data set [1] (setting [3]) was 4.30^[a]. The “direct activity (inhibition of bacteria growth)” value in data set [2] was “no direct activity”.

`O=C1OC(c2sc(Br)c(Br)c2F)=NC12CC2` [III.01, 5-(4,5-dibromo-3-fluoro-2-thienyl)-6-oxa-4-azaspiro[2.4]hept-4-en-7-one]: the results for the chromatographic logP in data set [1] (Log P) and in data set [1] (LogP) were 3.58 and 3.57, respectively. In addition, in data set [2], the “direct activity (inhibition of bacteria growth)” value is on record as “no direct activity”. As to `CCOC(=O)C1(NC(=O)c2sc(Cl)c(Cl)c2Cl)CC1` [XXI.05, ethyl 1-{[(3,4,5-trichloro-2-thienyl)carbonyl]amino}cyclopropanecarboxylate], the LogP in data set [1] (setting [3]) was 3.41^[a]. With `CCOC(=O)C1(NC(=O)c2sc(Cl)c(Cl)c2N)CC1` [XXVIII.01, ethyl 1-{[(3-amino-4,5-dichloro-2-thienyl)carbonyl]amino}cyclopropanecarboxylate], in data set [1] (setting [3]), the LogP was 2.77^[a]. Moreover, the “Log P” value in data set [1] (value given in preparation example, method letter not indicated) is 2.77. As to `O=C1OC(c2sc(Br)c(Br)c2Br)=NC12CC2` [III.06], in data set [1] (setting [3]), the LogP is 4.15^[a]. Take `CCOC(=O)C1(NC(=O)c2sc(Cl)c(Cl)c2C)CC1` [XXI.11, ethyl 1-{[(4,5-dichloro-3-methyl-2-thienyl)carbonyl]amino}cyclopropanecarboxylate]: the chromatographic logP in data set [1] (setting [4]) and in data set [1] (setting [5]) was 3.16 each time. For `Cc1c(C(=O)NC2(C(=O)O)CC2)sc(Cl)c1Cl` [XXI.14], the LogP in data set [1] (setting [3]) is 2.17^[a].

Take `O=C1OC(c2sc(Br)c(Br)c2Cl)=NC12CC2` [III.08]: the LogP in data set [1] (setting [3]) is 4.08^[a]. Turning to `Cc1c(C2=NC3(CC3)C(=O)O2)sc(Br)c1Br` [III.02], the LogP in data set [1] (setting [3]) was 4.33^[a]. The “direct activity (inhibition of bacteria growth)” value in data set [2] is recorded as “no direct activity”. Take `CCOC(=O)C1(NC(=O)c2sc(Br)c(Br)c2F)CC1` [XXI.01, ethyl 1-{[(4,5-dibromo-3-fluoro-2-thienyl)carbonyl]amino}cyclopropanecarboxylate]: the chromatographic logP in data set [1] (setting [4]) was 3.17; in data set [1] (setting [5]) it was 3.15. With `COC(=O)c1sc(Cl)c(Cl)c1Br` [XXIIa.09], the LogP in data set [1] (setting [3]) was 4.11^[a]. For `CCOC(=O)C1(NC(=O)c2sc(Cl)c(Cl)c2I)CC1` [XXI.08, ethyl 1-{[(4,5-dichloro-3-iodo-2-thienyl)carbonyl]amino}cyclopropanecarboxylate], the chromatographic logP in data set [1] (setting [4]) is 3.39. For `O=C(NC1(C(=O)O)CC1)c1sc(Cl)c(Cl)c1Br` [XXI.22], the LogP in data set [1] (setting [3]) is 2.37^[a]. Turning to `O=C1OC(c2sc(Cl)c(Cl)c2Br)=NC12CC2` [III.07], the LogP in data set [1] (setting [3]) is 4.12^[a]. Same read-out and setting: for `O=C(O)c1sc(Cl)c(Cl)c1Br` [XXIIa.06] the value was 2.52^[a]. As for `O=C(NC1(C(=O)O)CC1)c1sc(Br)c(Br)c1F` [XXI.03, 1-{[(4,5-dibromo-3-fluoro-2-thienyl)carbonyl]amino}cyclopropanecarboxylic acid], the chromatographic logP in data set [1] (setting [4]) is 2.14; in data set [1] (setting [5]), 2.15. Regarding `O=C1OC(c2sc(Cl)c(Cl)c2I)=NC12CC2` [III.09], the LogP in data set [1] (setting [3]) is 4.23^[a]. As to `CC(C)COC(=O)c1sc(Cl)c(Cl)c1Cl` [XXIIa.13], in data set [1] (setting [3]), the LogP was 5.75^[a].

For the origin of these results see patent US11884643B2, “Substituted thiophenecarboxamides and analogues as antibacterials agents” (priority 2018, dated 2024).
